This note sets out measurements from PubChem BioAssay (NCI).

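Test compounds were applied to cells in 96-well plates for 48 hours at 5 doses. TGI marks complete inhibition of growth.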

Some test systems named below: SF-295 CNS; DU-145 prostate; HCT-116 colon; SK-MEL-2 melanoma; NCI/ADR-RES ovarian; HOP-62 NSCLC; SN12C renal; U251 CNS; MDA-MB-435; RXF 393 renal; HOP-92 NSCLC.
Assay in all cases: NCI anticancer screen, dose series, 48 h

On to `CSc1cc(Cl)c(C)cc1S(=O)(=O)NC(=O)NNc1ccc(F)cc1`, for which the TGI in the experiment with SF-295 CNS, in the experiment with DU-145 prostate, with HCT-116 colon, in the experiment on SK-MEL-2 melanoma, in the experiment on NCI/ADR-RES ovarian and in the experiment on HOP-62 NSCLC was more than 100 µM throughout. The TGI with SN12C renal, with U251 CNS, with MDA-MB-435 and in the experiment on RXF 393 renal was more than 100 µM in each case.
On to `Cc1ncc([N+](=O)[O-])n1CC[N+](C)([O-])CCCCn1ccnc1[N+](=O)[O-]` (centres undefined), for which the TGI in the experiment with SF-295 CNS, in the experiment with DU-145 prostate, in the experiment on HCT-116 colon, in the experiment on SK-MEL-2 melanoma, in the experiment with NCI/ADR-RES ovarian and in the experiment with HOP-62 NSCLC was more than 100 µM throughout. Further, the TGI with SN12C renal, in the experiment with U251 CNS, in the experiment on MDA-MB-435 and in the experiment with RXF 393 renal was more than 100 µM each time.
On to `O=C(CN1CCCC1=O)CS(=O)(=O)c1ccccc1`, for which the TGI in the experiment with SF-295 CNS, with DU-145 prostate, in the experiment with HCT-116 colon, in the experiment on SK-MEL-2 melanoma, in the experiment with NCI/ADR-RES ovarian and in the experiment with HOP-62 NSCLC was more than 100 µM throughout. In addition, the TGI with U251 CNS, in the experiment on MDA-MB-435 and with RXF 393 renal was more than 100 µM each time.
`Cc1cc2nc3c(C#N)c4c(c(Nc5ccc(F)cc5)n3c2cc1C)CCC4`: the TGI in the experiment on SF-295 CNS, in the experiment on DU-145 prostate, in the experiment on HCT-116 colon, in the experiment with SK-MEL-2 melanoma, in the experiment with NCI/ADR-RES ovarian and with HOP-62 NSCLC was more than 100 µM throughout. Further, the TGI with SN12C renal, in the experiment on U251 CNS, with MDA-MB-435 and with RXF 393 renal was more than 100 µM each time.
With `Cc1cc2c(c(C(=O)NCC(=O)N[C@@H](C)C(=O)OCc3ccccc3)c1)Oc1c(cc(C)cc1C(=O)NCC(=O)N[C@@H](C)C(=O)OCc1ccccc1)S2`, the TGI with SF-295 CNS, with DU-145 prostate, with HCT-116 colon, in the experiment on SK-MEL-2 melanoma, in the experiment on NCI/ADR-RES ovarian and in the experiment with HOP-62 NSCLC was more than 100 µM throughout. For the same compound, the TGI in the experiment on SN12C renal was more than 100 µM; in the experiment on U251 CNS, more than 100 µM; with MDA-MB-435 it was more than 100 µM; in the experiment with RXF 393 renal it was 85.3 µM.
`O[C@@H]1C[C@H](Cl)c2c(Cl)sc(Cl)c21`: the TGI in the experiment with SF-295 CNS, in the experiment on DU-145 prostate, with HCT-116 colon, in the experiment on SK-MEL-2 melanoma, in the experiment with NCI/ADR-RES ovarian and with HOP-62 NSCLC was more than 100 µM each time. Also, the TGI with SN12C renal, in the experiment on U251 CNS, in the experiment on MDA-MB-435 and with RXF 393 renal was more than 100 µM throughout.
For `Cn1c(-c2ccc(-c3cc(-c4cccs4)c(-c4cccs4)n3C)cc2)cc(-c2cccs2)c1-c1cccs1`, the TGI with SF-295 CNS, in the experiment with DU-145 prostate, with HCT-116 colon, with SK-MEL-2 melanoma, with NCI/ADR-RES ovarian and in the experiment on HOP-62 NSCLC was more than 100 µM each time. Also, the TGI in the experiment with SN12C renal, with U251 CNS, with MDA-MB-435 and in the experiment with RXF 393 renal was more than 100 µM in each case.
With `O=C1c2ccccc2C(=O)N1n1c(Cc2ccc(Cl)cc2)n[nH]c1=O`, the TGI with SF-295 CNS, in the experiment with DU-145 prostate, with HCT-116 colon, with SK-MEL-2 melanoma, with NCI/ADR-RES ovarian and with HOP-62 NSCLC was more than 100 µM in each case. Further, the TGI with HOP-92 NSCLC, with SN12C renal, with U251 CNS and in the experiment on MDA-MB-435 was more than 100 µM each time.
For the compound `CC(=O)OCC1OC(N2C(=O)NC(=O)C3C=C4CCCCC4=CC32)CC1OC(C)=O` (centres undefined), the TGI with SF-295 CNS, in the experiment on DU-145 prostate, in the experiment with HCT-116 colon, with SK-MEL-2 melanoma, in the experiment with NCI/ADR-RES ovarian and in the experiment with HOP-62 NSCLC was more than 100 µM throughout. Moreover, the TGI with HOP-92 NSCLC, in the experiment on SN12C renal, in the experiment on U251 CNS and in the experiment on MDA-MB-435 was more than 100 µM throughout.
Regarding `C/C=C1/CN2CCC34c5ccccc5N(C)C23C2CC1C4(C(=O)OC)C(OC(C)=O)O2` (centres undefined), the TGI with SF-295 CNS, with DU-145 prostate, in the experiment on HCT-116 colon, with SK-MEL-2 melanoma, in the experiment on NCI/ADR-RES ovarian and with HOP-62 NSCLC was more than 100 µM in each case. The TGI in the experiment on HOP-92 NSCLC, in the experiment with SN12C renal, in the experiment with U251 CNS and in the experiment with MDA-MB-435 was more than 100 µM throughout.
With `COC(=O)CN(CC(=O)NCCCBr)C1CCCCC1N(CC(=O)OC)CC(=O)OC` (centres undefined), the TGI in the experiment on SF-295 CNS, in the experiment on DU-145 prostate, in the experiment with HCT-116 colon, in the experiment with SK-MEL-2 melanoma, in the experiment with NCI/ADR-RES ovarian and with HOP-62 NSCLC was more than 100 µM throughout. For the same compound, the TGI in the experiment on HOP-92 NSCLC, with SN12C renal, in the experiment with U251 CNS and with MDA-MB-435 was more than 100 µM throughout.
